Earlier results, collected in patent publication US8968725B2, “Genipin cross-linked fibrin gels” (University of Vermont and State Agricultural College, priority 2010, dated 2015).

Test system: mice
Settings: mouse, in vivo, iv

COC(=O)C1=CO[C@@H](O)[C@H]2C(CO)=CC[C@H]12 [Genipin, Methyl (1R,2R,6S)-2-hydroxy-9-(hydroxymethyl)-3-oxabicyclo[4.3.0]nona-4,8-diene-5-carboxylate]
LD50: 382 mg/kg
